± gives the expanded uncertainty stated by the source.
Experiment: Molar enthalpy of transition or fusion
Conditions: Adiabatic calorimetry

## N#CCCNc1ccccc1 [3-anilinopropanenitrile]
Crystal 1
  Molar enthalpy of transition or fusion: 0.2342 ± 0.0012 kcal/mol
Crystal 2
  Molar enthalpy of transition or fusion: 4.6367 ± 0.0012 kcal/mol
